Results reported in patent publication US11753413B2, “Substituted pyrrolo[2,1-f][1,2,4]triazine compounds as JAK2 V617F inhibitors” (Incyte Corporation, priority 2020, dated 2023).

Key:
[1] = target: T1, pseudo-kinase domain (JH2) of human V617F mutant JAK2 (Homo sapiens, UniProt O60674, F794H/V617F/W659A/W777A); assay: JAK2 LanthaScreen JH2-V617F Binding Assay; conditions: read-out: JH2 BIND V617F
T1 construct: JH2, amino-acids 536-812 with 3 surface mutations; His (C); purchased BPS Bioscience 79498; host or cells: baculovirus expression system
Protocol: Example C. JAK2 LanthaScreen JH2-V617F Binding Assay
(§1) JAK2 JH2-V617F binding assay utilizes pseudo-kinase domain (JH2, amino-acids 536-812 with 3 surface mutations W659A, W777A, F794H) of human V617F mutant JAK2 expressed as C-terminal His-Avi-tagged, biotinylated protein in a baculovirus expression system (BPS Bioscience, Catalog #79498). The assay was conducted in black 384-well polystyrene plates in a final reaction volume of 20 μL. JAK2 JH2-V617F (0.26 nM) was incubated with compounds (100 nL serially diluted in DMSO) in the presence of 50 nM Fluorescent JAK2-JH2 Tracer (MedChem Express Catalog #HY-102055) and 0.25 nM Streptavidin-Tb cryptate (Cisbio Part #610SATLB) in assay buffer (50 mM Tris, pH=7.5, 10 mM MgCl2, 0.01% Brij-35, 0.1% BSA, 1 mM EGTA, 5% Glycerol and 5 mM DTT). Non-specific binding was accessed in the presence of 2 mM ATP. After incubation for 1 hour at 25° C., LanthaScreen signals were read on a PHERAstar FS plate reader (BMG LABTECH). Data was analyzed with IDBS XLfit and GraphPad Prism 5.0 software using a four parameter dose response curve to determine IC50 for each compound.

[2] = target: T2, pseudo-kinase domain (JH2) of human Wild Type JAK2 (Homo sapiens, UniProt O60674, F794H/W659A/W777A); assay: JAK2 LanthaScreen JH2-WT Binding Assay; conditions: read-out: JH2 BIND WT
T2 construct: JH2, amino-acids 536-812 with 3 surface mutations; His (C); purchased BPS Bioscience 79463; host or cells: baculovirus expression system
Protocol: Example B. JAK2 LanthaScreen JH2-WT Binding Assay
as §1, with “JH2-WT” for “JH2-V617F”, “Wild Type” for “V617F mutant”, “#79463).” for “#79498).”, “JH2-WT (0.145” for “JH2-V617F (0.26”

[3] = target: T3, catalytic domain (JH1) of human JAK2 (Homo sapiens, UniProt O60674); assay: JAK2 HTRF Enzyme Activity Assay; format: biochemical; design: JH1, amino acids 808-1132; His (N); purchased BPS Bioscience 40450; host or cells: baculovirus expression system; conditions: ATP 30 μM or 1 mM (not given), read-out: ENZ
Protocol: Example D. JAK2 HTRF Enzyme Activity Assay
JAK2 enzyme activity assays utilize catalytic domain (JH1, amino acids 808-1132) of human JAK2 expressed as N-terminal His-tagged protein in a baculovirus expression system (BPS Bioscience, Catalog #40450). The assays was conducted in black 384-well polystyrene plates in a final reaction volume of 20 μL. JAK2 (0.015 nM) was incubated with compounds (100 nL serially diluted in DMSO) in the presence of ATP (30 μM or 1 mM) and 500 nM Biotin-labeled EQEDEPEGDYFEWLE (SEQ ID NO.: 1) peptide (BioSource International, custom synthesis) in assay buffer (50 mM Tris, pH=7.5, 10 mM MgC2, 0.01% Brij-35, 0.1% BSA, 1 mM EGTA, 5% Glycerol and 5 mM DTT) for 60 minutes at 25° C. The reactions were stopped by the addition of 10 μL of detection buffer (50 mM Tris, pH 7.8, 0.5 mg/mL BSA, 150 mM NaCl), supplemented with EDTA, LANCE Eu-W1024 anti-phosphotyrosine (PY20), (PerkinElmer, Catalog #AD0067) and Streptavidin SureLight APC (PerkinElmer Catalog #CR130-100), for a final concentration of 15 mM, 1.5 nM and 75 nM, respectively. HTRF signals were read after 30 minutes incubation at room temperature on a PHERAstar FS plate reader (BMG LABTECH). Data was analyzed with IDBS XLfit and GraphPad Prism 5.0 software using a four parameter dose response curve to determine IC50 for each compound.
Target sequence in this assay (O60674 808-1132): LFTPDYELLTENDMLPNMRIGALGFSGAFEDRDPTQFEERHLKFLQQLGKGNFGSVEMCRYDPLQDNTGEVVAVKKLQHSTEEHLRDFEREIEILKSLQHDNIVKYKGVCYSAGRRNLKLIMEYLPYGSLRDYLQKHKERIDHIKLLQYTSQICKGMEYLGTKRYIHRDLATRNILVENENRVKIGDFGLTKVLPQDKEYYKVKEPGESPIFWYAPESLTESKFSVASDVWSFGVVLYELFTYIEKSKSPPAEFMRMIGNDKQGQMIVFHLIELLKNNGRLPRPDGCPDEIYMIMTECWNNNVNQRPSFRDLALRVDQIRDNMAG

[4] = target: T3, catalytic domain (JH1) of human JAK2; assay: JAK2 LanthaScreen JH1 Binding Assay; design: JH1, amino acids 826-1132; FLAG (N); purchased Carna Biosciences 08-445-20N; host or cells: baculovirus expression system; conditions: read-out: JH1 BIND
Protocol: Example A. JAK2 LanthaScreen JH1 Binding Assay
JAK2 JH1 binding assay utilizes catalytic domain (JH1, amino acids 826-1132) of human JAK2 expressed as N-terminal FLAG-tagged, biotinylated protein in a baculovirus expression system (Carna Biosciences, Product #08-445-20N). The assay was conducted in black 384-well polystyrene plates in a final reaction volume of 20 μL. JAK2 JH1 (1.5 nM) was incubated with compounds (100 nL serially diluted in DMSO) in the presence of 50 nM fluorescent JAK2-JH1 tracer and 0.5 nM Streptavidin-Tb cryptate (Cisbio Part #610SATLB) in assay buffer (50 mM Tris, pH=7.5, 10 mM MgCl2, 0.01% Brij-35, 0.1% BSA, 1 mM EGTA, 5% Glycerol and 5 mM DTT). Non-specific binding was accessed in the presence of 2 mM ATP. After incubation for 2 hours at 25° C., LanthaScreen signals were read on a PHERAstar FS plate reader (BMG LABTECH). Data was analyzed with IDBS XLfit and GraphPad Prism 5.0 software using a four parameter dose response curve to determine IC50 for each compound.
Target sequence in this assay (O60674 826-1132): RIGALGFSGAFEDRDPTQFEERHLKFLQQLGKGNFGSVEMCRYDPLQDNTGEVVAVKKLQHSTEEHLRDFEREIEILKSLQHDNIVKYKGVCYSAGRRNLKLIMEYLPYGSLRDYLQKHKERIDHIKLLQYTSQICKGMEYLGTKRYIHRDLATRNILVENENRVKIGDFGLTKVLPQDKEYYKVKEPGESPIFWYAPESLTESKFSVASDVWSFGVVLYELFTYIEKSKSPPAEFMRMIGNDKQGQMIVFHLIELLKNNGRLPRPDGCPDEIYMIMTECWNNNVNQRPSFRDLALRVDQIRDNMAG

T2 sequence (O60674 536-812 W659A/W777A/F794H): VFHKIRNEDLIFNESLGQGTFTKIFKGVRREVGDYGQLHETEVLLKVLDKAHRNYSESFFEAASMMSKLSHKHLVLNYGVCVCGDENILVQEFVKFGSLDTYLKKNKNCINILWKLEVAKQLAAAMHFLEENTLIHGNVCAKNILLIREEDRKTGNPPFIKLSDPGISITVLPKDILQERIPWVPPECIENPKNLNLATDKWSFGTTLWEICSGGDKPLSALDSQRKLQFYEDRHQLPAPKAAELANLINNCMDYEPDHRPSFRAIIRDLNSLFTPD
T1 sequence (O60674 536-812 V617F/W659A/W777A/F794H): as the sequence (O60674 536-812 W659A/W777A/F794H) above, with V82F counted along it

`CCS(=O)(=O)Nc1ccc(Cn2cc(-c3ccn4nc(NC(=O)C5CC5)nc(Nc5cccc(C(F)(F)F)c5OC)c34)cn2)cc1` [Example 1, N-(5-(1-(4-(Ethylsulfonamido)benzyl)-1H-pyrazol-4-yl)-4-((2-methoxy-3-(trifluoromethyl)phenyl)amino)pyrrolo[2,1-f][1,2,4]triazin-2-yl)cyclopropanecarboxamide] was tested, and the IC50 [1] was ≤ 100 nM, the IC50 [2] was ≤ 100 nM and the IC50 [3] was > 10000 nM. The IC50 [4] was > 10000 nM.

With `COc1c(Nc2nc(NC(=O)C3CC3)nn3ccc(-c4cnn(Cc5ccc(NS(=O)(=O)C6CC6)cc5)c4)c23)cccc1C(F)(F)F` [Example 2, N-(5-(1-(4-(Cyclopropanesulfonamido)benzyl)-1H-pyrazol-4-yl)-4-((2-methoxy-3-(trifluoromethyl)phenyl)amino)pyrrolo[2,1-f][1,2,4]triazin-2-yl)cyclopropanecarboxamide] the IC50 [1] was ≤ 100 nM, the IC50 [2] was ≤ 100 nM and the IC50 [3] was > 10000 nM. The IC50 [4] was > 10000 nM.

For `CCS(=O)(=O)Nc1ccc(Cn2cc(-c3ccn4nc(NC(=O)C5CC5)nc(Nc5cccc(-c6ncn(C)n6)c5OC)c34)cn2)cc1` [Example 3, N-(5-(1-(4-(Ethylsulfonamido)benzyl)-1H-pyrazol-4-yl)-4-((2-methoxy-3-(1-methyl-1H-1,2,4-triazol-3-yl)phenyl)amino)pyrrolo[2,1-f][1,2,4]triazin-2-yl)cyclopropanecarboxamide], the IC50 [1] was 100 to 500 nM, the IC50 [2] was ≤ 100 nM and the IC50 [3] was > 10000 nM. For the same molecule, the IC50 [4] was > 10000 nM.

With `COc1c(Nc2nc(NC(=O)C3CC3)nn3ccc(-c4cnn(Cc5ccc(NS(C)(=O)=O)cc5)c4)c23)cccc1-c1ncn(C)n1` [Example 4, N-(4-((2-Methoxy-3-(1-methyl-1H-1,2,4-triazol-3-yl)phenyl)amino)-5-(1-(4-(methylsulfonamido)benzyl)-1H-pyrazol-4-yl)pyrrolo[2,1-f][1,2,4]triazin-2-yl)cyclopropanecarboxamide] the IC50 [1] was 100 to 500 nM, the IC50 [2] was 100 to 500 nM and the IC50 [3] was > 10000 nM. For the same molecule, the IC50 [4] was > 10000 nM.

For `COc1c(Nc2nc(NC(=O)C3CC3)nn3ccc(-c4cnn(Cc5cccnc5)c4)c23)cccc1C(F)(F)F` [Example 5, N-(4-((2-Methoxy-3-(trifluoromethyl)phenyl)amino)-5-(1-(pyridin-3-ylmethyl)-1H-pyrazol-4-yl)pyrrolo[2,1-f][1,2,4]triazin-2-yl)cyclopropanecarboxamide], the IC50 [1] was 1000 to 10000 nM, the IC50 [2] was 1000 to 10000 nM and the IC50 [3] was > 10000 nM. For the same molecule, the IC50 [4] was > 10000 nM.

With `COc1c(Nc2nc(NC(=O)C3CC3)nn3ccc(-c4cnn(Cc5ccc(C(=O)O)cc5)c4)c23)cccc1C(F)(F)F` [Example 6, 4-((4-(2-(Cyclopropanecarboxamido)-4-((2-methoxy-3-(trifluoromethyl)phenyl)amino)pyrrolo[2,1-f][1,2,4]triazin-5-yl)-1H-pyrazol-1-yl)methyl)benzoic acid] the IC50 [1] was ≤ 100 nM, the IC50 [2] was ≤ 100 nM and the IC50 [3] was 1000 to 10000 nM. For the same molecule, the IC50 [4] was 1000 to 10000 nM.
